Data as given in publication PMC10687119, “Quaternary Ammonium Salts of Cationic Lipopeptides with Lysine Residues — Synthesis, Antimicrobial, Hemolytic and Cytotoxic Activities” (Probiotics and Antimicrobial Proteins, 2023).
Converted amounts (≈) assume the structure as drawn. Read-outs that look alike come from different tables or passages of the source. Where a SMILES comes first, the peptide text is derived from it. [ ]: non-standard residue; d: D form. The star is where a group is joined. Lys(Me3) = C[N+](C)(C)CCCC[C@H](N)C(=O)O; Stearoyl = CCCCCCCCCCCCCCCCCC(=O)*; Palmitoyl = CCCCCCCCCCCCCCCC(=O)*

Legend:
[1] = test system: K. pneumoniae ATCC 700603; assay type: cell-based, Klebsiella pneumoniae
Method: (§1) The Acinetobacter baumannii ATCC BAA-1605, Enterococcus faecium ATCC 700221, Klebsiella aerogenes ATCC 13048, Klebsiella pneumoniae ATCC 700603, Pseudomonas aeruginosa ATCC 9027, Staphylococcus aureus ATCC 33591, Candida glabrata ATCC 15126 strains were acquired from the American Type Culture Collection (ATCC, Manassas, USA). All the strains were stored at −80 °C in Roti-Store cryo vials (Carl Roth GmbH, Germany) and before the tests were transferred into fresh Mueller–Hinton broth (MHB, Becton Dickinson, Poland) for bacteria or RPMI-1640 (Sigma-Aldrich, Germany) for fungi and incubated for 24 h at 37 °C. Then, the cultures were cultured on the Mueller–Hinton agar (BioMaxima, Poland) or Sabouraud dextrose agar (SDA, BioMaxima) plates, respectively, and incubated as just mentioned. For microbiological assays, a minimum of three to five well-isolated colonies of the same morphological type were carefully picked from the agar cultures. These colonies were transferred with sterile loop into fresh microbiological medium and incubated with shaking (100 rpm) at 37 °C until they reached logarithmic phase of growth. Cell densities for all assays were adjusted through spectrophotometric measurements (Multiskan GO Microplate Spectrophotometer, Thermo Fisher Scientific, Finland) at 600 and 530 nm for bacteria and fungi, respectively.
(§2) The MICs were determined by broth microdilution method according to the Clinical and Laboratory Standard Institute guidelines. For this purpose, initial inoculums of bacteria (5 × 10^5 CFU/mL) in MHB and yeasts (2 × 10^3 CFU/mL) in RPMI-1640 with 2% D-glucose were exposed to the ranging concentration of lipopeptides (1–512 μg/mL) and incubated at 37 °C for 18 h and 24 h, respectively. The experiments were conducted on 96-well microtiter polystyrene plates (Kartell, Italy). The growth was assessed visually after incubation and the MIC was assumed as the lowest peptide concentration at which a noticeable growth of microorganisms was inhibited. Benzalkonium chloride (Sigma-Aldrich, Germany) was used as reference compound. All experiments were conducted in triplicate.

[2] = test system: A. baumannii ATCC BAA 1605; assay type: cell-based, Acinetobacter baumannii
Method: as §1, §2

P. aeruginosa ATCC 9027 = assay type: cell-based, Pseudomonas aeruginosa
Method: as §1, §2

K. aerogenes ATCC 13048 = assay type: cell-based, Klebsiella aerogenes
Method: as §1, §2

C. glabrata ATCC 15126 = assay type: cell-based, Candida glabrata
Method: as §1, §2

[3] = test system: human red blood cells (RBCs); assay type: cell-based; conditions: red cells of human
Method: The hemolysis assay was conducted using a procedure described previously. For this purpose, human red blood cells (RBCs) isolated from K2EDTA Single Donor Human Whole blood (Innovative Research, Inc, MI, USA) were rinsed with Phosphate-buffer saline (PBS, pH 7.4±0.05, composition - KCl 2.7 mM, NaCl 140 mM, phosphate 10mM; AppliChem GmbH, Germany) by centrifugation for 10 min at 800 × g. This process was repeated 3 times and the RBCs were resuspended in PBS. Then, the stock solution of RBCs was added to the serial dilution of lipopeptides on 96-well polystyrene plates to reach a final volume of 100 μL with a 4% concentration of erythrocytes (v/v) and a concentration range of 1-512 μg/mL of tested compounds. The control wells for 0% and 100% hemolysis consisted of RBCs suspended in PBS and 1% of Triton X-100 (Sigma-Aldrich, Germany), respectively. Benzalkonium chloride (Sigma-Aldrich, Germany) was used as reference compound. Subsequently, the plates were incubated for 60 min at 37 °C and then centrifuged at 800 × g for 10 min at 4 °C (Sorvall ST […] Centrifuge, Thermo Scientific). The supernatant was carefully […] to new microtiter plates. The release of hemoglobin was monitored absorbance measurements at 540 nm (MultiskanTM GO Microplate Spectrophotometer, Thermo Scientific). All experiments were conducted in triplicate. HC50 was calculated using an ic50.tk tool.

[4] = test system: human keratinocyte cell line (HaCaT); assay type: cell-based; conditions: 24 h
Method: The immortalized human keratinocyte cell line (HaCaT), obtained from CLS (Cell Line Service, Germany) was cultured in DMEM-high glucose (Dulbecco’s Modified Eagle Medium) supplemented with 10% fetal bovine serum, 2 mM L-glutamine, 100 U/mL penicillin and 100 μg/mL streptomycin (Sigma-Aldrich; Merck KGaA) at 37 °C in a humidified atmosphere with 5% CO2. Cells were trypsinized, and the medium was renewed 2–3 times per week. The cytotoxicity of compounds was assessed by colorimetric CellTilter 96® Aqueous One Solution Cell Proliferation Assay (Promega, USA), containing a tetrazolium compound according to the manufacturer’s instructions. In brief, 7 × 10^3 HaCaT cells per well were plated on 96-well plates and incubated per night to adhere to the cultured dishes. After that time, different concentrations of the tested compounds ranging from 512 to 1 μg/mL were applied to the wells. Every compound was medium-soluble at 37 °C; thus, the non-treated cells were negative control. Serial dilutions of the tested compounds were always prepared before use. Cells were incubated with drugs for 24 h, and then, 20 μL of the CellTiter 96®AqueousOne Solution Reagent was added to each well containing treated cells in 100 µl of culture medium. After 4 h of incubation at 37 °C, the absorbance at 490 nm was recorded using a microplate reader (Epoch, BioTek Instruments, USA). The quantity of formazan product as measured by the amount of 490 nm absorbance is directly proportional to the number of living cells in culture. Benzalkonium chloride (Sigma-Aldrich, Germany) was used as reference compound. At least three independent experiments with two replicates were conducted for each concentration of a compound, and the IC50 values were calculated using GraphPad Prism 8 software.

E. faecium ATCC 700221 = assay type: cell-based, Enterococcus faecium
Method: as §1, §2

S. aureus ATCC 33591 = assay type: cell-based, Staphylococcus aureus
Method: as §1, §2

[5] = C. glabrata ATCC 15126, 24 h, 37 °C
[6] = S. aureus ATCC 33591, 18 h, 37 °C

Compound	MIC ([1]; ATCC 700603, 18 h)	MIC ([2]; ATCC BAA 1605, 18 h)	MIC (P. aeruginosa ATCC 9027; ATCC 9027, 18 h)	MIC (K. aerogenes ATCC 13048; ATCC 13048, 18 h)	MIC (C. glabrata ATCC 15126; ATCC 15126, 24 h)	MIC (C. glabrata ATCC 15126; [5])	HC50 [3]	IC50 [4]	MIC (E. faecium ATCC 700221; ATCC 700221, 18 h)	MIC (S. aureus ATCC 33591; ATCC 33591, 18 h)	MIC (S. aureus ATCC 33591; [6])	MIC (E. faecium ATCC 700221; E. faecium ATCC 700221, 18 h, 37 °C)	MIC ([1]; K. pneumoniae ATCC 700603, 18 h, 37 °C)	MIC ([2]; A. baumannii ATCC BAA 1605, 18 h, 37 °C)	MIC (P. aeruginosa ATCC 9027; P. aeruginosa ATCC 9027, 18 h, 37 °C)	MIC (K. aerogenes ATCC 13048; K. aerogenes ATCC 13048, 18 h, 37 °C)	IC50 ([4]; HaCaT)
CCCCCCCCCCCCCCCCCC(=O)N[C@@H](CCCC[N+](C)(C)C)C(N)=O [Peptide 1Sq, C18-K(Me3)^+-NH2]	>512 µg/mL	>512 µg/mL	>512 µg/mL	>512 µg/mL	4 to 8 µg/mL	4 µg/mL	16.13 ± 9.88 µg/mL	14.13 ± 0.39 µg/mL									
CCCCCCCCCCCCCCCCCC(=O)N[C@@H](CCCC[N+](C)(C)C)C(=O)N[C@@H](CCCC[N+](C)(C)C)C(N)=O [Peptide 2Sq, C18-K(Me3)^+K(Me3)^+-NH2]	128 µg/mL	64 µg/mL	>512 µg/mL	64 µg/mL	16 µg/mL		22.42 ± 0.98 µg/mL	78.57 ± 5.49 µg/mL	16 µg/mL	8 µg/mL							
CCCCCCCCCCCCCCCCCC(=O)N[C@@H](CCCCN)C(N)=O [Peptide 1S, C18-K-NH2]	>512 µg/mL	>512 µg/mL	>512 µg/mL	>512 µg/mL			>512 µg/mL	8.34 ± 1.07 µg/mL (≈ 20.3 µM)			> 512 µg/mL						
CCCCCCCCCCCCCC(=O)N[C@@H](CCCC[N+](C)(C)C)C(=O)N[C@@H](CCCC[N+](C)(C)C)C(N)=O [Peptide 2Mq, C14-K(Me3)^+K(Me3)^+-NH2]	>512 µg/mL	>512 µg/mL	>512 µg/mL	>512 µg/mL	512 µg/mL		>512 µg/mL	258.90 ± 35.07 µg/mL	128 µg/mL	128 µg/mL							
CCCCCCCCCCCCCCCC(=O)N[C@@H](CCCC[N+](C)(C)C)C(=O)N[C@@H](CCCC[N+](C)(C)C)C(=O)N[C@@H](CCCC[N+](C)(C)C)C(=O)N[C@@H](CCCC[N+](C)(C)C)C(N)=O [Peptide 4Pq, C16-K(Me3)^+K(Me3)^+K(Me3)^+K(Me3)^+-NH2] (Palmitoyl-[Lys(Me3)][Lys(Me3)][Lys(Me3)][Lys(Me3)]-NH2)	>512 µg/mL	>512 µg/mL	>512 µg/mL	512 µg/mL	>512 µg/mL		>512 µg/mL	>512 µg/mL	32 µg/mL	512 µg/mL							
CCCCCCCCCCCCCCCC(=O)N[C@@H](CCCCN)C(=O)N[C@@H](CCCCN)C(N)=O [Peptide 2P, C16-KK-NH2]	128 µg/mL (≈ 250 µM)	64 µg/mL (≈ 125 µM)	16 µg/mL (≈ 31.3 µM)	32 µg/mL (≈ 62.5 µM)	16 µg/mL (≈ 31.3 µM)		55.21 ± 1.69 µg/mL	10.27 ± 1.59 µg/mL (≈ 20.1 µM)	8 µg/mL (≈ 15.6 µM)								
CCCCCCCCCCCCCCCCCC(=O)N[C@@H](CCCCN)C(=O)N[C@@H](CCCCN)C(N)=O [Peptide 2S, C18-KK-NH2]	64 µg/mL (≈ 119 µM)	32 µg/mL (≈ 59.3 µM)	128 µg/mL (≈ 237 µM)	32 µg/mL (≈ 59.3 µM)	8 µg/mL (≈ 14.8 µM)		21.88 ± 0.68 µg/mL	4.33 ± 0.79 µg/mL (≈ 8.02 µM)	4 µg/mL (≈ 7.41 µM)								
benzalkonium chloride [BAC, reference compound]						4 µg/mL					4 µg/mL	4 µg/mL	16 µg/mL	16 µg/mL	32 µg/mL	16 µg/mL	11.70 ± 0.76 µg/mL
CCCCCCCCCCCCCCCC(=O)N[C@@H](CCCCN)C(N)=O [Peptide 1P, C16-K-NH2]	>512 µg/mL		>512 µg/mL	>512 µg/mL	>512 µg/mL		>512 µg/mL	1.74 ± 0.49 µg/mL (≈ 4.54 µM)	4 µg/mL (≈ 10.4 µM)	>512 µg/mL							
CCCCCCCCCCCCCCCCCC(=O)N[C@@H](CCCCN)C(=O)N[C@@H](CCCCN)C(=O)N[C@@H](CCCCN)C(=O)N[C@@H](CCCCN)C(N)=O [Peptide 4S, C18-KKKK-NH2] (Stearoyl-KKKK-NH2)	8 µg/mL (≈ 10 µM)	16 µg/mL (≈ 20.1 µM)	8 µg/mL (≈ 10 µM)	4 µg/mL (≈ 5.02 µM)	16 µg/mL (≈ 20.1 µM)		48.44 ± 4.12 µg/mL	155.34 ± 11.20 µg/mL (≈ 195 µM)	4 µg/mL (≈ 5.02 µM)								
CCCCCCCCCCCCCCCC(=O)N[C@@H](CCCCN)C(=O)N[C@@H](CCCCN)C(=O)N[C@@H](CCCCN)C(=O)N[C@@H](CCCCN)C(N)=O [Peptide 4P, C16-KKKK-NH2] (Palmitoyl-KKKK-NH2)	32 µg/mL (≈ 41.7 µM)	64 µg/mL (≈ 83.3 µM)	32 µg/mL (≈ 41.7 µM)	8 µg/mL (≈ 10.4 µM)	64 µg/mL (≈ 83.3 µM)		>512 µg/mL	126.80 ± 27.26 µg/mL (≈ 165 µM)	4 µg/mL (≈ 5.21 µM)								
CCCCCCCCCCCCCCCC(=O)N[C@@H](CCCCN)C(=O)N[C@@H](CCCCN)C(=O)N[C@@H](CCCCN)C(N)=O [Peptide 3P, C16-KKK-NH2]	32 µg/mL (≈ 50 µM)	64 µg/mL (≈ 100 µM)	32 µg/mL (≈ 50 µM)	8 µg/mL (≈ 12.5 µM)	64 µg/mL (≈ 100 µM)		135.46 ± 8.69 µg/mL	45.40 ± 20.45 µg/mL (≈ 70.9 µM)	8 µg/mL (≈ 12.5 µM)								
CCCCCCCCCCCCCCCCCC(=O)N[C@@H](CCCCN)C(=O)N[C@@H](CCCCN)C(=O)N[C@@H](CCCCN)C(N)=O [Peptide 3S, C18-KKK-NH2]	8 µg/mL (≈ 12 µM)	32 µg/mL (≈ 47.9 µM)	16 µg/mL (≈ 24 µM)	4 µg/mL (≈ 5.99 µM)	8 µg/mL (≈ 12 µM)		32.11 ± 1.54 µg/mL	88.51 ± 4.72 µg/mL (≈ 132 µM)	4 µg/mL (≈ 5.99 µM)								
